From US20230091225A1, “Bifunctional chimeric heterocyclic compounds for targeted degradation of androgen receptors and use thereof” (HINOVA PHARMACEUTICALS INC., priority 2019, published 2023) come the findings set out here.

For assay [1], the target named is T1, androgen receptor (AR) (Homo sapiens, UniProt P10275).
T1 sequence (P10275 1-920): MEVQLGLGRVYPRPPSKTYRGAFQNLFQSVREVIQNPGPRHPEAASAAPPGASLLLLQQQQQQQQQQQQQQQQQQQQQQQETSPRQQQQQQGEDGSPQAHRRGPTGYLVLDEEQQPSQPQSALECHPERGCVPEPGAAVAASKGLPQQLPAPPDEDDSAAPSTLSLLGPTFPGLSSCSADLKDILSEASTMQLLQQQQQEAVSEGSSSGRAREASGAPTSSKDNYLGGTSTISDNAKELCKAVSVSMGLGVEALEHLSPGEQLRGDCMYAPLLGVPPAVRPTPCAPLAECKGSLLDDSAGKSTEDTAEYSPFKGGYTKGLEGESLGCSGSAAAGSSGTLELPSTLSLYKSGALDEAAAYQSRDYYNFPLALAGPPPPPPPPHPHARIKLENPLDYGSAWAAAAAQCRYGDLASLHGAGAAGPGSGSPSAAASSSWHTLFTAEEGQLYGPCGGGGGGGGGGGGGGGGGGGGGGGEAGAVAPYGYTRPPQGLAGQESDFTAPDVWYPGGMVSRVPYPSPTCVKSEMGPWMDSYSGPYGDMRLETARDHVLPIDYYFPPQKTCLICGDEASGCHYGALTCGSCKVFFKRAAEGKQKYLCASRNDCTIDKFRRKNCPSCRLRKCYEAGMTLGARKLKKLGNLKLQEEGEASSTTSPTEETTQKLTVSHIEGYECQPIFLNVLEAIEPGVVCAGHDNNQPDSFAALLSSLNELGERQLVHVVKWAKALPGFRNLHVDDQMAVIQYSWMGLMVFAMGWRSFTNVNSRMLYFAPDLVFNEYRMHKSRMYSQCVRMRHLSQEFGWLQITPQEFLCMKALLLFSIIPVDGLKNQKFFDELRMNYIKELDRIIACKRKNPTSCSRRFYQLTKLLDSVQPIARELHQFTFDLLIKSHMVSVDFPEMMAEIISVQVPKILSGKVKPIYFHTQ
Description: Degradation of androgen receptor (AR) protein in VCaP cells by Western blot. Type of assay: cell-based. As to conditions: percentage of degraded AR at 100 nM, VCaP cells, 16 h. The essentials: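 VCaP cells (5×10^5/well) were seeded overnight, then treated in duplicate for 16 h with compound in 0.1% DMSO final. Lysates (30 μg protein) were immunoblotted for AR (D6F11) with β-actin as loading control, detected by ECL chemiluminescence.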

Assay [2] concerns the target T1, androgen receptor (AR). Description: Degradation of androgen receptor (AR) protein in VCaP cells by ELISA. The format is cell-based. (In general: ELISA stands for enzyme-linked immunosorbent assay.)

As to `N#Cc1ccc(O[C@H]2CC[C@H](NC(=O)c3cnc(N4CC(N5CC6CN(c7cc8c(cc7F)C(=O)N(C7CCC(=O)NC7=O)C8=O)CC6C5)C4)cn3)CC2)cc1Cl` (some centres unmarked) [Compound 225, N-((1r,4r)-4-(3-chloro-4-cyanophenoxy)cyclohexyl)-5-(3-(5-(2-(2,6-dioxopiperidin-3-yl)-6-fluoro-1,3-dioxoisoindolin-5-yl)hexahydropyrrolo[3,4-c]pyrrol-2(1H)-yl)azitidin-1-yl)pyrazine-2-carboxamide], the inhibition (usually the relative decrease from the control value, in per cent) at 0.1 µM in assay [1] lay within 50 to 79%.
As to `N#Cc1ccc(O[C@H]2CC[C@H](NC(=O)c3ccc(N4CCN(C(=O)O[C@H]5C[C@@H]6CN(c7cc8c(cc7F)C(=O)N(C7CCC(=O)NC7=O)C8=O)C[C@@H]6C5)CC4)nn3)CC2)cc1Cl` (some centres unmarked) [Compound 290], the inhibition at 0.1 µM in assay [1] was in the range of 50 to 79%.
The compound `N#Cc1ccc(O[C@H]2CC[C@H](NC(=O)c3ccc(N4CCN([C@@H]5C[C@@H]6CN(c7cc8c(cc7F)C(=O)N(C7CCC(=O)NC7=O)C8=O)C[C@@H]6C5)CC4)nn3)CC2)cc1Cl` (stereo partly drawn) [Compound 297, N-((1r,4r)-4-(3-chloro-4-cyanophenoxy)cyclohexyl)-6-(4-((3aR,5R,6aS)-2-(2-(2,6-dioxopiperidin-3-yl)-6-fluoro-1,3-dioxoisoindolin-5-yl)octahydrocyclopenta[c]pyrrol-5-yl)piperazin-1-yl)pyridazine-3-formamide] registered an inhibition at 0.1 µM in assay [1] of 25 to 49%.
The same measure, in the same setting: for `N#Cc1ccc(O[C@H]2CC[C@H](NC(=O)c3ccc(N4CCC(CN5CCC(Nc6ccc7c(c6)C(=O)N(C6CCC(=O)NC6=O)C7=O)CC5)CC4)nn3)CC2)cc1Cl` (some centres unmarked) [Compound 143] the value was more than 80%; for `CC1(C)[C@H](Oc2ccc(C#N)c(Cl)c2)C(C)(C)[C@H]1N1Cc2nc(C#CC3CC(NC4CCN(c5ccc6c(c5)C(=O)N(C5CCC(=O)NC5=O)C6=O)CC4)C3)ccc2C1=O` (some centres unmarked) [Compound 327, 2-Chloro-4-((1r,3r)-3-(2-((3-(1-(2-(2,6-dioxopiperidin-3-yl)-1,3-dioxoisoindolin-5-yl)piperidine-4-ylamino)cyclobutyl)ethynyl)-5-oxo-5,7-dihydro-pyrrolo[3,4-b]pyridin-6-yl)-2,2,4,4-tetramethylcyclobutoxy)benzonitrile], 50 to 79%.
On the same count and under the same terms, for `CC1(C)[C@H](Oc2ccc(C#N)c(Cl)c2)C(C)(C)[C@H]1N1Cc2nc(C#CC3CN(C4CCN(c5cc6c(cc5F)C(=O)N(C5CCC(=O)NC5=O)C6=O)CC4)C3)ccc2C1=O` (some centres unmarked) [Compound 320, 2-Chloro-4-((1r,3r)-3-(2-((1-(1-(2-(2,6-dioxopiperidin-3-yl)-6-fluoro-1,3-dioxoisoindolin-5-yl)piperidine-4-yl)azelaic acid-3-yl)ethynyl)-5-oxo-5H-pyrrolino[3,4-b]pyridin-6(7H)-yl)-2,2,4,4-tetramethylcyclobutoxy)benzonitrile] the value was 50 to 79%.
Consider `N#Cc1ccc(O[C@H]2CC[C@H](NC(=O)c3cnc(N4CCC(CN5CCC6(CC5)CN(c5cc7c(cc5F)C(=O)N(C5CCC(=O)NC5=O)C7=O)C6)CC4)nn3)CC2)cc1Cl` (some centres unmarked) [Compound 158], for which the inhibition at 0.1 µM in assay [1] is more than 80%. In addition, in assay [2] (AR degradation, VCaP cells, 16 h, ELISA, Table 3-2, read-out: DC50), the DC50 (as a rule, the midpoint of the concentration-degradation curve) was less than 10 nM. Also, the Dmax (in general, the greatest extent of degradation seen) in assay [2] (VCaP) is more than 80%.
`N#Cc1ccc(O[C@H]2CC[C@H](NC(=O)c3cnc(N4C[C@H]5C[C@@H](N6CCN(c7cc8c(cc7F)C(=O)N(C7CCC(=O)NC7=O)C8=O)CC6)C[C@H]5C4)cn3)CC2)cc1Cl` (stereo partly drawn) [Compound 293, N-((1r,4r)-4-(3-chloro-4-cyanophenoxy)cyclohexyl)-5-((3aR,5R,6aS)-5-(4-(2-(2,6-dioxopiperidin-3-yl)-6-fluoro-1,3-dioxoisoindolin-5-yl)piperazin-1-yl)hexahydrocyclopenta[c]pyrrole-2(1H)-yl)pyrazine-2-carboxamide] gave an inhibition at 0.1 µM in assay [1] of 50 to 79%.
For the compound `N#Cc1ccc(O[C@H]2CC[C@H](NC(=O)c3cnc(N4CCN(C(=O)O[C@H]5C[C@@H]6CN(c7ccc8c(c7)C(=O)N(C7CCC(=O)NC7=O)C8=O)C[C@@H]6C5)CC4)cn3)CC2)cc1Cl` (some centres unmarked) [Compound 301], the inhibition at 0.1 µM in assay [1] lay within 50 to 79%.
Same read-out and setting: as for `N#Cc1ccc(O[C@H]2CC[C@H](NC(=O)c3cnc(N4CC5CN(CC6CCN(c7cc8c(cc7F)C(=O)N(C7CCC(=O)NC7=O)C8=O)CC6)CC5C4)cn3)CC2)cc1Cl` (some centres unmarked) [Compound 157], the figure is more than 80%; as for `N#Cc1ccc(O[C@H]2CC[C@H](NC(=O)c3ccc(N4C[C@H]5C[C@@H](CN6CC7CN(c8cc9c(cc8F)C(=O)N(C8CCC(=O)NC8=O)C9=O)CC7C6)C[C@H]5C4)nn3)CC2)cc1Cl` (stereo partly drawn) [Compound 222, N-((1r,4r)-4-(3-chloro-4-cyanophenoxy)cyclohexyl)-6-((3aR,5R, 6aS)-5-((5-(2-(2,6-dioxopiperidin-3-yl)-6-fluoro-1,3-dioxoisoindolin-5-yl)hexahydropyrrolo[3,4-c]pyrrol-2(1H)-yl)methyl)hexahydrocyclopenta[c]pyrrole-2(1H)-yl)pyridazine-3-formamide], more than 80%; as for `CC1(C)[C@H](NC(=O)c2ccc(N3CC4CN(CC5CN(c6cc7c(cc6F)C(=O)N(C6CCC(=O)NC6=O)C7=O)C5)CC4C3)nn2)C(C)(C)[C@H]1Oc1ccc(C#N)c(Cl)c1` (some centres unmarked) [Compound 161, N-((1r,3r)-3-(3-chloro-4-cyanophenoxy)-2,2,4,4-tetramethylcyclobutyl)-6-(5-((1-(2-(2,6-dioxopiperidin-3-yl)-6-fluoro-1,3-dioxoisoindolin-5-yl)azelaic acid-3-yl)methyl)hexahydropyrrolo[3,4-c]pyrrol-2(1H)-pyrazole)formamide], 50 to 79%.
Same read-out and setting: for `CN(C1CCN(c2ccc3c(c2)C(=O)N(C2CCC(=O)NC2=O)C3=O)CC1)C1CC(C#Cc2ccc3c(n2)CN([C@H]2C(C)(C)[C@H](Oc4ccc(C#N)c(Cl)c4)C2(C)C)C3=O)C1` (some centres unmarked) [Compound 331] the value was 25 to 49%.
As to `N#Cc1ccc(OC2CCC(NC(=O)c3ccc(N4C[C@@H]5C(CN6CCN(c7cc8c(cc7F)C(=O)N(C7CCC(=O)NC7=O)C8=O)CC6)[C@@H]5C4)nn3)CC2)cc1Cl` (stereo partly drawn) [Compound 178, N-((1r,4R)-4-(3-chloro-4-cyanophenoxy)cyclohexyl)-6-((1R,5S,6S)-6-((4-(2-(2,6-dioxopiperidin-3-yl)-6-fluoro-1,3-dioxoisoindolin-5-yl)piperazin-1-yl)methyl)-3-azabicyclo[3.1.0]hexan-3-yl)pyridazine-3-formamide], the “% degradation” value in assay [1] is “B (79%-50%)”.
As for `N#Cc1ccc(Oc2ccc(NC(=O)c3ccc(N4CCC(CN5CCN(c6cc7c(cc6F)C(=O)N(C6CCC(=O)NC6=O)C7=O)CC5)CC4)nn3)cc2)cc1Cl` (centres unmarked) [Compound 227, N-(4-(3-chloro-4-cyanophenoxy)phenyl)-6-(4-((4-(2-(2,6-dioxopiperidin-3-yl)-6-fluoro-1,3-dioxoisoindolin-5-yl)piperazin-1-yl)methyl)piperidin-1-yl)pyridazine-3-formamide], in assay [1], the inhibition at 0.1 µM was in the range of 25 to 49%.
Same read-out and setting: for `CC1(C)[C@H](Oc2ccc(C#N)c(Cl)c2)C(C)(C)[C@H]1N1Cc2nc(C#CC3CCN(C4CN(c5cc6c(cc5F)C(=O)N(C5CCC(=O)NC5=O)C6=O)C4)CC3)ccc2C1=O` (some centres unmarked) [Compound 318, 2-Chloro-4-((1r,3r)-3-(2-((1-(1-(2-(2,6-dioxopiperidin-3-yl)-6-fluoro-1,3-dioxoisoindolin-5-yl)azitidin-3-yl)piperidine-4-yl)ethynyl)-5-oxo-5H-pyrrolino [3,4-b]pyridin-6(7H)-yl)-2,2,4,4-tetramethylcyclobutoxy)benzonitrile] the value was 50 to 79%; for `N#Cc1ccc(O[C@H]2CC[C@H](NC(=O)c3ccc(N4CC(CN5CC6CN(c7cc8c(cc7F)C(=O)N(C7CCC(=O)NC7=O)C8=O)CC6C5)C4)nn3)CC2)cc1Cl` (some centres unmarked) [Compound 137], 50 to 79%; for `CC1(C)[C@H](NC(=O)c2ccc(N3CCC(N4C[C@H]5CN(c6cc7c(cc6F)C(=O)N(C6CCC(=O)NC6=O)C7=O)C[C@H]5C4)CC3)nn2)C(C)(C)[C@H]1Oc1ccc(C#N)c(Cl)c1` (stereo partly drawn) [Compound 221, N-((1r,3R)-3-(3-chloro-4-cyanophenoxy)-2,2,4,4-tetramethylcyclobutyl)-6-(4-((3aR,6aS)-5-(2-(2,6-dioxopiperidin-3-yl)-6-fluoro-1,3-dioxoisoindolin-5-yl)hexahydropyrrolo[3,4-c]pyrrol-2(1H)-yl)piperidin-1-yl)pyridazine-3-carboxamide], 25 to 49%.
